Source: the CheMixHub ionic liquid set

Assay: xn = mol fraction of the nth substance listed

CCCCCO + CCCC[n+]1ccn(C)c1.N#C[S-]
Conditions | viscosity [mPa·s]
298.15 K, 101 kPa, x1 = 1 | 3.37

CCCCCCCCCC[N+](C)(C)C.[Br-] + O
298.15 K, 101 kPa
Conditions | viscosity [mPa·s]
x1 = 9.063e-05 | 0.9026
x1 = 0.0001809 | 0.9052
x1 = 0.0002674 | 0.9071
x1 = 0.0003644 | 0.9089
x1 = 0.0004939 | 0.9162
x1 = 0.000699 | 0.9255
x1 = 0.0009049 | 0.9331
x1 = 0.00108 | 0.939
x1 = 0.001236 | 0.9459
x1 = 0.001415 | 0.9542
x1 = 0.001504 | 0.9589
x1 = 0.001656 | 0.9675
x1 = 0.001835 | 0.9775

CCCC[N+]1(C)CCCC1.O=S(=O)([O-])C(F)(F)F + O
100 kPa
Conditions | electrical conductivity [S/m] | viscosity [mPa·s]
288.15 K, x2 = 0.0597 | 0.147 | 241.7
288.15 K, x2 = 0.3197 | 0.297 | 98.4
288.15 K, x2 = 0.3766 | 0.344 | 81.5
288.15 K, x2 = 0.7673 | 1.04 | 18.66
293.15 K, x2 = 0.3197 | 0.368 | 76.9
293.15 K, x2 = 0.8612 | 1.72 | 8.54
298.15 K, x2 = 0.0597 | 0.238 | 138.8
298.15 K, x2 = 0.3766 | 0.521 | 51.2
298.15 K, x2 = 0.6794 | 1.15 | 18.33
298.15 K, x2 = 0.7673 | 1.51 | 12.54
298.15 K, x2 = 0.95 | 2.4 | 2.88
303.15 K, x2 = 0.3766 | 0.623 | 41.65
303.15 K, x2 = 0.95 | 2.77 | 2.49
308.15 K, x2 = 0.1203 | 0.415 | 72.5
308.15 K, x2 = 0.3766 | 0.736 | 34.31
313.15 K, x2 = 0.1956 | 0.581 | 47.98
313.15 K, x2 = 0.5819 | 1.42 | 15.25
318.15 K, x2 = 0.1203 | 0.586 | 48.5
318.15 K, x2 = 0.3197 | 0.89 | 28.23
323.15 K, x2 = 0.0597 | 0.612 | 46.94
323.15 K, x2 = 0.1956 | 0.795 | 33.42
323.15 K, x2 = 0.5819 | 1.87 | 11.25
323.15 K, x2 = 0.6794 | 2.43 | 8.12
323.15 K, x2 = 0.95 | 4.45 | 1.52
328.15 K, x2 = 0.3766 | 1.31 | 17.72
333.15 K, x2 = 0.5819 | 2.41 | 8.59
